The results in this text go back to ChEMBL document CHEMBL4665709, “Rational Avoidance of Protease Cleavage Sites and Symmetrical End-Tagging Significantly Enhances the Stability and Therapeutic Potential of Antimicrobial Peptides” (J Med Chem, 2020).

For orientation: MIC means the lowest concentration that inhibits growth of the organism.

Data set [1] relates to Escherichia coli. In words: Antibacterial activity against Escherichia coli ATCC 25922 infected in C57BL/6 mouse assessed as reduction in lesion in lung at 10 mg/kg, ip measured after 11 hrs by hematoxylin and eosin staining based assay. The data set is classed as functional, organism-based.
Data set [2] deals with Escherichia coli. In words: Antibacterial activity against Escherichia coli ATCC 25922 after 18 to 24 hrs in presence of 100% human serum by CLSI-based broth microdilution method. The format is functional. The settings on record: time hrs 18-24. Background: Dilution methods test growth across graded concentrations, often in twofold steps.
The next data set concerns Staphylococcus aureus. Kind of data set: Antibacterial activity against Staphylococcus aureus ATCC 29213 after 18 to 24 hrs in presence of 25% human serum by CLSI-based broth microdilution method. The data set is classed as functional. The following applies: time hrs 18-24.
Data set [3] can be described thus: Toxicity in C57BL/6 mouse assessed as effect on total bilirubin level at 20 mg/kg, ip measured after 5 days. The settings on record: in vivo, 120 h, time 5 day. The format is organism-based.

The source made the active and inactive calls. The rule behind the calls is not given here. Where a SMILES comes first, the peptide text is derived from it.

Regarding `CC[C@H](C)[C@H](N)C(=O)N[C@H](C(=O)N[C@H](C(=O)N[C@@H](CS)C(=O)N[C@@H](CCCNC(=N)N)C(=O)N[C@@H](CCCCN)C(=O)N1CCC[C@H]1C(=O)N[C@H](C(=O)N[C@H](C(=O)N[C@@H](CS)C(=O)N[C@@H](CCCNC(=N)N)C(=O)N[C@@H](CCCCN)C(=O)N1CCC[C@H]1C(=O)N[C@H](C(=O)N[C@H](C(=O)N[C@@H](CS)C(=O)N[C@@H](CCCNC(=N)N)C(=O)N[C@@H](CCCCN)C(=O)N1CCC[C@H]1C(=O)N[C@H](C(=O)N[C@H](C(=O)N[C@@H](CS)C(=O)N[C@@H](CCCNC(=N)N)C(=O)N[C@@H](CCCCN)C(=O)N1CCC[C@H]1C(=O)N[C@H](C(=O)N[C@H](C(=O)N[C@H](C(N)=O)[C@@H](C)CC)[C@@H](C)CC)[C@@H](C)CC)[C@@H](C)CC)[C@@H](C)CC)[C@@H](C)CC)[C@@H](C)CC)[C@@H](C)CC)[C@@H](C)CC)[C@@H](C)CC)[C@@H](C)CC` (H-IIICRKPIICRKPIICRKPIICRKPIII-NH2), in the data set on Escherichia coli [1], the result was Active. Besides, the MIC in the data set on Escherichia coli [2] and in the data set on Staphylococcus aureus was 8 µM each time. Also, the Activity entry in data set [3] is listed as “Non-Toxic”.
